In patent publication US8993282B2, “Carotenoid fermentation method” (JX Nippon Oil & Energy Corporation, priority 2008, dated 2015):

Tested on: Paracoccus carotinifaciens strain E-396 (FERM BP-4283)
Test: Glutamate concentration series, 5 L fermentation tank culture, carotenoid by HPLC
Type: cell-based
Details: for Produced carotenoid concentration, 3-Hydroxyechinenone / Produced carotenoid concentration, Adonixanthin / Produced carotenoid concentration, Astaxanthin / Produced carotenoid concentration, Asteroidenone / Produced carotenoid concentration, Canthaxanthin / Produced carotenoid concentration, Echinenone / Produced carotenoid concentration, Phoenicoxanthin / Produced carotenoid concentration, Total Carotenoid / Produced carotenoid concentration, Zeaxanthin / Produced carotenoid concentration, β-Carotene / Produced carotenoid concentration, β-Cryptoxanthin: 100 hours
Protocol: In the examples, carotenoids were quantified by high performance liquid chromatography (HPLC) as follows.
Two columns of Wakosil-II 5 SIL-100 (φ4.6×250 mm) (Wako Pure Chemical Industries, Ltd., Japan) were connected to each other for use as a column. Elution was performed by flowing an n-hexane-tetrahydrofuran-methanol mixed solution (40:20:1), which was a mobile phase, at a flow rate of 1.0 mL/minute at a constant temperature around room temperature. The measurement was performed as follows. Samples were each dissolved in tetrahydrofuran and then diluted 100-fold with the mobile phase. Each dilution was injected in a volume of 20 μL. The column eluate was detected at a wavelength of 470 nm. As a reference for quantification, astaxanthin (SIGMA, Cat. No. A9335) was used. The astaxanthin concentration of the reference solution was determined using the following equation after measuring the absorbance (A) of the reference solution at 477 nm and the area percentage % (B) of the astaxanthin peak at the time of HPLC analysis under the above conditions. Astaxanthin concentration (mg/L)=A/2150×B×100
A medium of the following composition (glucose 20 g/L, filtered corn steep liquor 5 g/L, potassium dihydrogenphosphate 0.54 g/L, dipotassium hydrogenphosphate 12-hydrate 2.78 g/L, calcium chloride dihydrate 5.0 g/L, magnesium sulfate 7-hydrate 0.7 g/L, iron sulfate 7-hydrate 3.0 g/L, alcohol-based defoaming agent 0.2 g/L., pH 7.5) was dispensed in 100 ml volumes into 500 mL cotton-plugged Erlenmeyer flasks and sterilized in an autoclave at 121° C. for 15 minutes to prepare a flask medium for seed culture in 8 flasks.
Next, a medium of the following composition (glucose 40 g/L, corn steep liquor 30 g/L, ammonium sulfate 0.5 g/L, potassium dihydrogenphosphate 2.25 g/L, disodium hydrogenphosphate 12-hydrate 5.7 g/L, calcium chloride dihydrate 0.1 g/L, magnesium sulfate 7-hydrate 0.5 g/L, iron sulfate 7-hydrate 5 g/L, alcohol-based defoaming agent 0.5 g/L) was dispensed in 2.0 L volumes into 5 L fermentation tanks (8 tanks in total). To these tanks, monosodium L-glutamate monohydrate was added at 0, 1, 5, 15, 30, 50, 100 and 200 mmol/L, respectively, followed by sterilization in an autoclave at 121° C. for 30 minutes.
A loopful of Paracoccus carotinifaciens strain E-396 (FERM BP-4283) was inoculated into the flask medium for seed culture and then cultured with rotary shaking at 29° C. for 2 days at 100 rpm. The resulting culture solution was then inoculated in 80 mL, volumes into the individual fermentation tanks, followed by aerobic culture at 29° C. at an aeration volume of 1 vvm for 100 hours. To maintain a pH of 7.2 during culture, the pH was continuously controlled with 15% aqueous ammonia. Glucose was added in an amount of 30 g on day 1 and day 2 of culture to prevent glucose depletion. In addition, the minimum number of agitation rotations was set to 200 rpm, and the number of agitation rotations was varied such that the dissolved oxygen concentration in the culture solution was maintained at 2 to 4 ppm. Bubbling was detected with a bubble sensor and suppressed by automatic addition of an alcohol-based defoaming agent.
At the completion of culture, each culture solution was measured for its carotenoid concentration by HPLC.

[1] = Glutamic acid concentration 1 mmol/L
[2] = Glutamic acid concentration 5 mmol/L
[3] = Glutamic acid concentration 15 mmol/L
[4] = Glutamic acid concentration 30 mmol/L
[5] = Glutamic acid concentration 50 mmol/L
[6] = Glutamic acid concentration 100 mmol/L
[7] = Glutamic acid concentration 200 mmol/L

For N[C@@H](CCC(=O)O)C(=O)O [Glutamic acid, glutamic acid], the “Produced carotenoid concentration, 3-Hydroxyechinenone” value [1] was 0.2 mg/L, the “Produced carotenoid concentration, Adonixanthin” value [1] was 7.8 mg/L and the “Produced carotenoid concentration, Astaxanthin” value [1] was 18.3 mg/L. For the same compound, the “Produced carotenoid concentration, Asteroidenone” value [1] was 0.4 mg/L, the “Produced carotenoid concentration, Canthaxanthin” value [1] was 2.0 mg/L and the “Produced carotenoid concentration, Echinenone” value [1] was 1.6 mg/L. The “Produced carotenoid concentration, Phoenicoxanthin” value [1] was 5.1 mg/L, the “Produced carotenoid concentration, Total Carotenoid” value [1] was 39.9 mg/L and the “Produced carotenoid concentration, Zeaxanthin” value [1] was 0.17 mg/L. The “Produced carotenoid concentration, β-Carotene” value [1] was 4.3 mg/L, the “Produced carotenoid concentration, β-Cryptoxanthin” value [1] was 0.05 mg/L and the “Produced carotenoid concentration, 3-Hydroxyechinenone” value [2] was 0.3 mg/L. For the same compound, the “Produced carotenoid concentration, Adonixanthin” value [2] was 7.8 mg/L, the “Produced carotenoid concentration, Astaxanthin” value [2] was 27.3 mg/L and the “Produced carotenoid concentration, Asteroidenone” value [2] was 0.4 mg/L. For the same compound, the “Produced carotenoid concentration, Canthaxanthin” value [2] was 3.7 mg/L, the “Produced carotenoid concentration, Echinenone” value [2] was 1.9 mg/L and the “Produced carotenoid concentration, Phoenicoxanthin” value [2] was 7.8 mg/L. For the same compound, the “Produced carotenoid concentration, Total Carotenoid” value [2] was 55.7 mg/L, the “Produced carotenoid concentration, Zeaxanthin” value [2] was 0.18 mg/L and the “Produced carotenoid concentration, β-Carotene” value [2] was 6.2 mg/L. The “Produced carotenoid concentration, β-Cryptoxanthin” value [2] was 0.07 mg/L, the “Produced carotenoid concentration, 3-Hydroxyechinenone” value [3] was 0.3 mg/L and the “Produced carotenoid concentration, Adonixanthin” value [3] was 9.6 mg/L. For the same compound, the “Produced carotenoid concentration, Astaxanthin” value [3] was 30.8 mg/L, the “Produced carotenoid concentration, Asteroidenone” value [3] was 0.6 mg/L and the “Produced carotenoid concentration, Canthaxanthin” value [3] was 3.0 mg/L. For the same compound, the “Produced carotenoid concentration, Echinenone” value [3] was 2.1 mg/L, the “Produced carotenoid concentration, Phoenicoxanthin” value [3] was 7.2 mg/L and the “Produced carotenoid concentration, Total Carotenoid” value [3] was 59.7 mg/L. For the same compound, the “Produced carotenoid concentration, Zeaxanthin” value [3] was 0.19 mg/L, the “Produced carotenoid concentration, β-Carotene” value [3] was 5.8 mg/L and the “Produced carotenoid concentration, β-Cryptoxanthin” value [3] was 0.07 mg/L. For the same compound, the “Produced carotenoid concentration, 3-Hydroxyechinenone” value [4] was 0.3 mg/L, the “Produced carotenoid concentration, Adonixanthin” value [4] was 9.3 mg/L and the “Produced carotenoid concentration, Astaxanthin” value [4] was 30.3 mg/L. The “Produced carotenoid concentration, Asteroidenone” value [4] was 0.6 mg/L, the “Produced carotenoid concentration, Canthaxanthin” value [4] was 3.1 mg/L and the “Produced carotenoid concentration, Echinenone” value [4] was 2.2 mg/L. For the same compound, the “Produced carotenoid concentration, Phoenicoxanthin” value [4] was 7.4 mg/L, the “Produced carotenoid concentration, Total Carotenoid” value [4] was 59.4 mg/L and the “Produced carotenoid concentration, Zeaxanthin” value [4] was 0.20 mg/L. The “Produced carotenoid concentration, β-Carotene” value [4] was 5.9 mg/L, the “Produced carotenoid concentration, β-Cryptoxanthin” value [4] was 0.08 mg/L and the “Produced carotenoid concentration, 3-Hydroxyechinenone” value [5] was 0.4 mg/L. The “Produced carotenoid concentration, Adonixanthin” value [5] was 10.8 mg/L, the “Produced carotenoid concentration, Astaxanthin” value [5] was 30.9 mg/L and the “Produced carotenoid concentration, Asteroidenone” value [5] was 0.9 mg/L. For the same compound, the “Produced carotenoid concentration, Canthaxanthin” value [5] was 2.0 mg/L, the “Produced carotenoid concentration, Echinenone” value [5] was 2.3 mg/L and the “Produced carotenoid concentration, Phoenicoxanthin” value [5] was 6.4 mg/L. For the same compound, the “Produced carotenoid concentration, Total Carotenoid” value [5] was 58.9 mg/L, the “Produced carotenoid concentration, Zeaxanthin” value [5] was 0.21 mg/L and the “Produced carotenoid concentration, β-Carotene” value [5] was 4.9 mg/L. The “Produced carotenoid concentration, β-Cryptoxanthin” value [5] was 0.07 mg/L, the “Produced carotenoid concentration, 3-Hydroxyechinenone” value [6] was 0.3 mg/L and the “Produced carotenoid concentration, Adonixanthin” value [6] was 9.2 mg/L. For the same compound, the “Produced carotenoid concentration, Astaxanthin” value [6] was 28.6 mg/L, the “Produced carotenoid concentration, Asteroidenone” value [6] was 0.6 mg/L and the “Produced carotenoid concentration, Canthaxanthin” value [6] was 2.8 mg/L. The “Produced carotenoid concentration, Echinenone” value [6] was 2.0 mg/L, the “Produced carotenoid concentration, Phoenicoxanthin” value [6] was 7.0 mg/L and the “Produced carotenoid concentration, Total Carotenoid” value [6] was 56.2 mg/L. The “Produced carotenoid concentration, Zeaxanthin” value [6] was 0.18 mg/L, the “Produced carotenoid concentration, β-Carotene” value [6] was 5.5 mg/L and the “Produced carotenoid concentration, β-Cryptoxanthin” value [6] was 0.06 mg/L. For the same compound, the “Produced carotenoid concentration, 3-Hydroxyechinenone” value [7] was 0.3 mg/L, the “Produced carotenoid concentration, Adonixanthin” value [7] was 7.6 mg/L and the “Produced carotenoid concentration, Astaxanthin” value [7] was 23.5 mg/L. For the same compound, the “Produced carotenoid concentration, Asteroidenone” value [7] was 0.5 mg/L, the “Produced carotenoid concentration, Canthaxanthin” value [7] was 2.4 mg/L and the “Produced carotenoid concentration, Echinenone” value [7] was 1.7 mg/L. For the same compound, the “Produced carotenoid concentration, Phoenicoxanthin” value [7] was 5.9 mg/L, the “Produced carotenoid concentration, Total Carotenoid” value [7] was 46.7 mg/L and the “Produced carotenoid concentration, Zeaxanthin” value [7] was 0.15 mg/L. The “Produced carotenoid concentration, β-Carotene” value [7] was 4.6 mg/L, the “Produced carotenoid concentration, β-Cryptoxanthin” value [7] was 0.05 mg/L and the “produced carotenoid concentration compared to the sample without glutamic acid” value (glutamic acid at concentrations from 1 to 200 mmol/L) was “higher produced carotenoid concentration”.
